# According to publication PMC8429728, “TNK1 is a ubiquitin-binding and 14-3-3-regulated kinase that can be targeted to block tumor growth” (Nature Communications, 2021):
# Where two headings read alike, the source gives them in different places.
# Key:
# Experiment in all cases: biochemical
# Design in all cases: Reaction Biology 371-kinase panel at Km ATP, per cent enzyme activity relative to DMSO, single dose in duplicate
# [1] = molecular target: SRMS (Homo sapiens, UniProt Q9H3Y6); conditions: duplicate measurements, Km ATP
# In short: (§1)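 Activity of each kinase, normalised to DMSO-treated controls, served as the read-out. The inhibitor was tested at 300 nM against 371 kinases in vitro. Curves fitted by variable-slope sigmoidal dose-response, constrained to a bottom of 0, gave IC50.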
# [2] = molecular target: STK21/CIT (Homo sapiens, UniProt O14578); conditions: duplicate measurements, Km ATP
# In short: as §1
# [3] = molecular target: TESK1 (Homo sapiens, UniProt Q15569); conditions: duplicate measurements, Km ATP; read-out: % Enzyme Activity (relative to DMSO controls) / TP-0005801 (0.3µM) / Data 1
# In short: as §1
# [4] = molecular target: BRAF (Homo sapiens, UniProt P15056); conditions: duplicate measurements, Km ATP
# In short: as §1
# [5] = molecular target: SBK1 (Homo sapiens, UniProt Q52WX2); conditions: duplicate measurements, Km ATP
# In short: as §1
# [6] = molecular target: LCK (Homo sapiens, UniProt P06239); conditions: duplicate measurements, Km ATP
# In short: as §1
# [7] = molecular target: ULK1 (Homo sapiens, UniProt O75385); conditions: duplicate measurements, Km ATP
# In short: as §1
# [8] = molecular target: JAK1 (Homo sapiens, UniProt P23458); conditions: duplicate measurements, Km ATP
# In short: as §1
# [9] = molecular target: ABL1 (Homo sapiens, UniProt P00519); conditions: duplicate measurements, Km ATP
# In short: as §1
# [10] = molecular target: WEE1 (Homo sapiens, UniProt P30291); conditions: duplicate measurements, Km ATP
# In short: as §1
# [11] = molecular target: MUSK (Homo sapiens, UniProt O15146); conditions: duplicate measurements, Km ATP
# In short: as §1
# [12] = molecular target: LATS2 (Homo sapiens, UniProt Q9NRM7); conditions: duplicate measurements, Km ATP
# In short: as §1
# [13] = molecular target: T1, c-MER (Homo sapiens, UniProt Q12866); conditions: duplicate measurements, Km ATP
# T1 construct: gene MERTK
# In short: as §1
# [14] = molecular target: TAOK2/TAO1 (Homo sapiens, UniProt Q9UL54); conditions: duplicate measurements, Km ATP
# In short: as §1
# [15] = molecular target: EPHA8 (Homo sapiens, UniProt P29322); conditions: duplicate measurements, Km ATP
# In short: as §1
# [16] = molecular target: DDR2 (Homo sapiens, UniProt Q16832); conditions: duplicate measurements, Km ATP
# In short: as §1
# [17] = molecular target: EPHA3 (Homo sapiens, UniProt P29320); conditions: duplicate measurements, Km ATP
# In short: as §1
# [18] = molecular target: ERBB4/HER4 (Homo sapiens, UniProt Q15303); conditions: duplicate measurements, Km ATP
# In short: as §1
# [19] = molecular target: T2, CK2a (Homo sapiens, UniProt P68400); conditions: duplicate measurements, Km ATP
# T2 construct: gene CSNK2A1
# In short: as §1
# [20] = molecular target: FER (Homo sapiens, UniProt P16591); conditions: duplicate measurements, Km ATP
# In short: as §1
# [21] = read-out: % Enzyme Activity (relative to DMSO controls) / TP-0005801 (0.3µM) / Data 1
# [22] = read-out: % Enzyme Activity (relative to DMSO controls) / TP-0005801 (0.3µM) / Data 2
# Sequence of JAK1 (P23458 whole entry): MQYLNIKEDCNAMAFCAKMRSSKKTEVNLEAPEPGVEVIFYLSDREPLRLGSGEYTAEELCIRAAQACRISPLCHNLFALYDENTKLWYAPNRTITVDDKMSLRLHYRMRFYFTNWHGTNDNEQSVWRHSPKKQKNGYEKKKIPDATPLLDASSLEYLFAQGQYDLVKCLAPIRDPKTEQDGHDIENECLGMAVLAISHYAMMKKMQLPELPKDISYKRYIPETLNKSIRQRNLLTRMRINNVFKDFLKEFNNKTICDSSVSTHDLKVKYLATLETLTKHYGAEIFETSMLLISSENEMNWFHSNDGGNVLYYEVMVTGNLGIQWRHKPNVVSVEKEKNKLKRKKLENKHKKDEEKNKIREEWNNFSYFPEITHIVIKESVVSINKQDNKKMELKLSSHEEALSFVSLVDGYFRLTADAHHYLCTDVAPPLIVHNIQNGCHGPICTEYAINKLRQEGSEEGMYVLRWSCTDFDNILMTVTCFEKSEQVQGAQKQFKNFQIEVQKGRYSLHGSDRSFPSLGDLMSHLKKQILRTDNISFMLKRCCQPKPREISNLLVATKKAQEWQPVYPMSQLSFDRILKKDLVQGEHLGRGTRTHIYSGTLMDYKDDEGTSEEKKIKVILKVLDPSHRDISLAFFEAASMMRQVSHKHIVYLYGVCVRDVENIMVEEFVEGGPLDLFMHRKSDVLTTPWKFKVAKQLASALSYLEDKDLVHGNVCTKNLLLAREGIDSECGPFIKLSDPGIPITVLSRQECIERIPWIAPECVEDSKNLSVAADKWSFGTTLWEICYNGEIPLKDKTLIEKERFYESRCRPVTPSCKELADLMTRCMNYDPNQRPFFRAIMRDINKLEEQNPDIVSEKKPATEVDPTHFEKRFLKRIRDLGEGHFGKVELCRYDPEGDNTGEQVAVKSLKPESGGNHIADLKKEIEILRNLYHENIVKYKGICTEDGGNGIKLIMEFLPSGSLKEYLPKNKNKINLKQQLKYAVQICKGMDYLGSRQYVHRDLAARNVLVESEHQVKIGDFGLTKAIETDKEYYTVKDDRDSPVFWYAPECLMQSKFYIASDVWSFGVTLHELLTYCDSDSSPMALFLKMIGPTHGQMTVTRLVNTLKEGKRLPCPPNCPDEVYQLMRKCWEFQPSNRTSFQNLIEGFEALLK
# Sequence of ULK1 (O75385 whole entry): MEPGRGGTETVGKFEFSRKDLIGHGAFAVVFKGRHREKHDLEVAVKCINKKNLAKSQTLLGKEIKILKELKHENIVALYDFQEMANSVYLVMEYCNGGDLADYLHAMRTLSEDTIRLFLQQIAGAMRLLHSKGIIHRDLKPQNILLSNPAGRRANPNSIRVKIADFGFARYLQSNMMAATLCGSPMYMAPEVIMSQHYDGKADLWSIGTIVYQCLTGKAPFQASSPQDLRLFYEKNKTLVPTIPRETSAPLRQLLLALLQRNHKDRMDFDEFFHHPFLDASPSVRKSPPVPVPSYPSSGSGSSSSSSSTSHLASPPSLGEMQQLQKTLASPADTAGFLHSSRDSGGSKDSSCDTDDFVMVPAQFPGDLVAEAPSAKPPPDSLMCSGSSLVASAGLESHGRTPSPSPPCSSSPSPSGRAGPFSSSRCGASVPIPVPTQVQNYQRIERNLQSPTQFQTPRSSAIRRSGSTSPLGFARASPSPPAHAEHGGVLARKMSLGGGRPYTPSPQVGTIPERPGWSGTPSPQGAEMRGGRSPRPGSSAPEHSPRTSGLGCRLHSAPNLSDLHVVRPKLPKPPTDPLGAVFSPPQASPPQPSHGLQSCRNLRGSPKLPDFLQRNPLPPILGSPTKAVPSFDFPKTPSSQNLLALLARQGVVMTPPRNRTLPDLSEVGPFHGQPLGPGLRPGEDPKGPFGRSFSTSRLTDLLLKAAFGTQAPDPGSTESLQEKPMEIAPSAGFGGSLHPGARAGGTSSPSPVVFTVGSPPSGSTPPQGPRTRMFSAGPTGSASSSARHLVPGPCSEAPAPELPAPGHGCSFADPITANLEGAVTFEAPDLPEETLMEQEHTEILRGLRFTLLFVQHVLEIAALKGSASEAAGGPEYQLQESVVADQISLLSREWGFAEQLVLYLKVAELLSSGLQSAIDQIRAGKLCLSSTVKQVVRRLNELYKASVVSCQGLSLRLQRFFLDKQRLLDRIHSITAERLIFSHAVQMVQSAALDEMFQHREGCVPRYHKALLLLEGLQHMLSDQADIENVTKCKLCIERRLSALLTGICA
# Sequence of ERBB4/HER4 (Q15303 whole entry): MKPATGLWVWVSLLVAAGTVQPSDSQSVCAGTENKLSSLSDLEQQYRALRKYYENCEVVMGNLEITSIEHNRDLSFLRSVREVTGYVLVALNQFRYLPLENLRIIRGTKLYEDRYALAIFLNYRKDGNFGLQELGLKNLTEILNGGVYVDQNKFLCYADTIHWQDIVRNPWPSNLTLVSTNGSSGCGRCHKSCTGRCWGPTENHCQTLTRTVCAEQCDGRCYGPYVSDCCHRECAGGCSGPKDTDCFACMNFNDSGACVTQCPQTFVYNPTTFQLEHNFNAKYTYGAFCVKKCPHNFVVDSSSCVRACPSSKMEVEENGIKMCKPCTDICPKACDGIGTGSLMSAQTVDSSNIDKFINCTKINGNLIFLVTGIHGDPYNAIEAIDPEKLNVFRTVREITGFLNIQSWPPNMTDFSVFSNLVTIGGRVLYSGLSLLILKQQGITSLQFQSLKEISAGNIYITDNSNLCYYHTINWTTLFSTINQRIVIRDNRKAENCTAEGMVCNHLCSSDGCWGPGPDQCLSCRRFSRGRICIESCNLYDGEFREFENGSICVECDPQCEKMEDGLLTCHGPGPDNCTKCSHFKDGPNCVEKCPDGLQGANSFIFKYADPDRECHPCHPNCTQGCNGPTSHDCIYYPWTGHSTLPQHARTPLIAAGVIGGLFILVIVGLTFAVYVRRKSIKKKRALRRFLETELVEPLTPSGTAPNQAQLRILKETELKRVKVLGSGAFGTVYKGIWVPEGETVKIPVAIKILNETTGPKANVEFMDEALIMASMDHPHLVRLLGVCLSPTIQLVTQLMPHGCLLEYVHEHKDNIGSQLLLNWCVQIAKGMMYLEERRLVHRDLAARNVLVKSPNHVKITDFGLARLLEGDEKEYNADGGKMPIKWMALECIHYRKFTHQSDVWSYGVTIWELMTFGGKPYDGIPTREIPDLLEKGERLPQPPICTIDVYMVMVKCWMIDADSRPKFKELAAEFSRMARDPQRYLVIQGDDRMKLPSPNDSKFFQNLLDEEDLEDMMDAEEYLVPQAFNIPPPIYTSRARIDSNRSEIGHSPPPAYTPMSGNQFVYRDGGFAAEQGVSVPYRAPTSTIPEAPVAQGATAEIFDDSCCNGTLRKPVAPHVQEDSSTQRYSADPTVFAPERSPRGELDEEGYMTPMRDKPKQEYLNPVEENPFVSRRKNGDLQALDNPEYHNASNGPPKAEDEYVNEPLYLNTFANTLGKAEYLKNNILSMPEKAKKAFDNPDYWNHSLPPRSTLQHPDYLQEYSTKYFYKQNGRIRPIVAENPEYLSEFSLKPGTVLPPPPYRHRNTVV
# Sequence of SRMS (Q9H3Y6 whole entry): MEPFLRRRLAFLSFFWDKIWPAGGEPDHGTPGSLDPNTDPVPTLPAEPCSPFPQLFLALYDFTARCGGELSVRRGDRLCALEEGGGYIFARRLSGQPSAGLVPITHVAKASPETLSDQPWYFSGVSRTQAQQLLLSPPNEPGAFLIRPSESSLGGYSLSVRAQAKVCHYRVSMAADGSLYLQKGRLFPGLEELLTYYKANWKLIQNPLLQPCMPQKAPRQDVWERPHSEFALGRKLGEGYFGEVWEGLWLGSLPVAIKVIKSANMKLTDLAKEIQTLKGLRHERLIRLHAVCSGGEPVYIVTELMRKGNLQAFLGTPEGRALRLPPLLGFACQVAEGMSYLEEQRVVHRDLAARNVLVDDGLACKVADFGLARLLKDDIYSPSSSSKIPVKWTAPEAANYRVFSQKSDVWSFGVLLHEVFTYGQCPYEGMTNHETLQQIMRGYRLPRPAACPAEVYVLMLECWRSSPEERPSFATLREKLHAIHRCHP
# Sequence of EPHA3 (P29320 whole entry): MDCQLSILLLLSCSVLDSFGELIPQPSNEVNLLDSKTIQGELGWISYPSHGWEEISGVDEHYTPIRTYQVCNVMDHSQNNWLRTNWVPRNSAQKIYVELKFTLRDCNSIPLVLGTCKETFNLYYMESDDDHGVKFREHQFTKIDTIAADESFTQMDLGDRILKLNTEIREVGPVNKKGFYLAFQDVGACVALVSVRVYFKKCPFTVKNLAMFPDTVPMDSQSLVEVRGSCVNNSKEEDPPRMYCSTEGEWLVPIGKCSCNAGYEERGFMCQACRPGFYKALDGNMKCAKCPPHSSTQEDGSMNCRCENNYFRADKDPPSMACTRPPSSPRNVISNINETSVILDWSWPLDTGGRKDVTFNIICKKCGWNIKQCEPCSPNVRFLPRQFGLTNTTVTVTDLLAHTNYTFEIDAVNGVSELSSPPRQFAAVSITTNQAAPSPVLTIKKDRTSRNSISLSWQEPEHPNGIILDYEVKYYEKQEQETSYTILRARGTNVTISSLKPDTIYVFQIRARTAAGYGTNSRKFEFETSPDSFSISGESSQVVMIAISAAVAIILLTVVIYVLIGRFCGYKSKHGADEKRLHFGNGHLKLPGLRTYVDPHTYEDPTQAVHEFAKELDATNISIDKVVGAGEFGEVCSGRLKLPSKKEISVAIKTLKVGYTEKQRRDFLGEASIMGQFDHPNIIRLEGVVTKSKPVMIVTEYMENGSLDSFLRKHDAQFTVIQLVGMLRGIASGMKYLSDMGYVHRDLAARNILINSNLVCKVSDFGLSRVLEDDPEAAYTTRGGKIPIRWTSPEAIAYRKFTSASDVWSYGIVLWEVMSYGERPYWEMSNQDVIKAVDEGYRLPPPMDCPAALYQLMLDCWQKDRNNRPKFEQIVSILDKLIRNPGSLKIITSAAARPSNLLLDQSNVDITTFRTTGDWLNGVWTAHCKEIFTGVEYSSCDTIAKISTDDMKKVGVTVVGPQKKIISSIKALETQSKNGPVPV
compound,measurement,setting,value
COc1cc(N2CCN(C)CC2)c(C)cc1Nc1ncc(Br)c(Nc2cccnc2N(C)C)n1 [TP-5801],remaining activity at 0.3 µM,[1]; [21],89.9%
same,remaining activity at 0.3 µM,[1]; [22],89.5%
same,remaining activity at 0.3 µM,[2]; [21],107%
same,remaining activity at 0.3 µM,[2]; [22],105%
same,remaining activity at 0.3 µM,[3],102%
same,remaining activity at 0.3 µM,[4]; [21],87.3%
same,remaining activity at 0.3 µM,[4]; [22],85.1%
same,remaining activity at 0.3 µM,[5]; [21],99%
same,remaining activity at 0.3 µM,[5]; [22],95.5%
same,remaining activity at 0.3 µM,[6]; [21],101%
same,remaining activity at 0.3 µM,[6]; [22],99.4%
same,remaining activity at 0.3 µM,[7]; [21],49.9%
same,remaining activity at 0.3 µM,[7]; [22],49.7%
same,remaining activity at 0.3 µM,[8]; [21],104%
same,remaining activity at 0.3 µM,[8]; [22],102%
same,remaining activity at 0.3 µM,[9]; [21],109%
same,remaining activity at 0.3 µM,[9]; [22],107%
same,remaining activity at 0.3 µM,[10]; [21],94.2%
same,remaining activity at 0.3 µM,[10]; [22],93.6%
same,remaining activity at 0.3 µM,[11]; [21],62%
same,remaining activity at 0.3 µM,[11]; [22],57.2%
same,remaining activity at 0.3 µM,[12]; [21],95.8%
same,remaining activity at 0.3 µM,[12]; [22],92.4%
same,remaining activity at 0.3 µM,[13]; [21],106%
same,remaining activity at 0.3 µM,[13]; [22],104%
same,remaining activity at 0.3 µM,[14]; [21],86%
same,remaining activity at 0.3 µM,[14]; [22],84.4%
same,remaining activity at 0.3 µM,[15]; [21],95.1%
same,remaining activity at 0.3 µM,[15]; [22],93.8%
same,remaining activity at 0.3 µM,[16]; [21],77.1%
same,remaining activity at 0.3 µM,[16]; [22],75.8%
same,remaining activity at 0.3 µM,[17]; [21],103%
same,remaining activity at 0.3 µM,[17]; [22],97.5%
same,remaining activity at 0.3 µM,[18]; [21],103%
same,remaining activity at 0.3 µM,[18]; [22],102%
same,remaining activity at 0.3 µM,[19]; [21],42.4%
same,remaining activity at 0.3 µM,[19]; [22],41.8%
same,remaining activity at 0.3 µM,[20]; [21],11.7%
same,remaining activity at 0.3 µM,[20]; [22],11.4%
